Laboratory results taken from patent publication US20070259857A1, “Amorphous form of Olanzapine” (priority 2003, published 2007).

Assay: Storage stability of ground amorphous olanzapine at room temperature, by XRPD analysis
Format: physicochemical
Details: ground sample of Example One stored at room temperature for 13 weeks
Procedure: Figure Two is an XRPD spectrum of amorphous olanzapine. X-ray powder diffraction (XRPD) was performed on a Bruker D8 advance difractometer, at 25° C. between the angles of 4° and 50° 2 theta.
The sample of ground olanzapine was stored at room temperature for 13 weeks for stability testing using XRPD analysis.

**Q.** For `Cc1cc2c(s1)Nc1ccccc1N=C2N1CCN(C)CC1` [olanzapine, 2-methyl-4-(4-methyl-1-piperazinyl)-10H-thieno[2,3-b][1,5]benzodiazepine], which “Stability testing using XRPD analysis: difference in XRPD spectrum between the original and the stored sample” value is on record?
**A.** No difference was observed
